The nature of data set [1]: Cmax in rat at 5 mg/kg, po. Format: ADME, organism-based. More on the design: dose 5 mg/kg, route oral. The note with it: in vivo.
Data set [2] addresses T1, Glucocorticoid receptor (Rattus norvegicus, UniProt P06536).
T1 sequence (P06536 whole entry): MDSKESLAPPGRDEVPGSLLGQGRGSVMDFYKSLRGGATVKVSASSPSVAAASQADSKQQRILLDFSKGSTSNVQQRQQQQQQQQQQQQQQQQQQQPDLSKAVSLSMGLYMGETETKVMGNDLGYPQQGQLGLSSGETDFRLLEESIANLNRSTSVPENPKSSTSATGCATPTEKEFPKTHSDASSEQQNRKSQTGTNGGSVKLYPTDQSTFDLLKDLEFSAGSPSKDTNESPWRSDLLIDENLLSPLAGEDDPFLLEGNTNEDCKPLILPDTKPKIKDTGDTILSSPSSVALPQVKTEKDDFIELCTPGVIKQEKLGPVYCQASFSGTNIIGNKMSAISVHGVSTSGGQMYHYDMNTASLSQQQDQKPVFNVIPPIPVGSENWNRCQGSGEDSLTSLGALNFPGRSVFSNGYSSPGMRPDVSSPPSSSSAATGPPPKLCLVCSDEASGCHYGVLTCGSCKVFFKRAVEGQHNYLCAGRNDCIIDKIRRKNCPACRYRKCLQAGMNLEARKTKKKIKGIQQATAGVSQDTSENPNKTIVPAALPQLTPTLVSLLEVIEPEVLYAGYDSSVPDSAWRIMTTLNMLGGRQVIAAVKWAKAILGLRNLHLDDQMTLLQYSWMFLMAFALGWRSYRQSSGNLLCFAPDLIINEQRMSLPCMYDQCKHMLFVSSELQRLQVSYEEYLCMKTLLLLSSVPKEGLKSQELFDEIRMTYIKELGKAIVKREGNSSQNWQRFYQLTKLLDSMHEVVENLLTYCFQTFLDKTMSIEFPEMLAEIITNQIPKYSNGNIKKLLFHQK
The data set is described as follows: Antagonist activity at GR in rat PBMC assessed as reduction in dexamethasone-induced FKBP5 gene expression incubated for 24 hrs by RT-qPCR method. The class given is cell-based.

A short description of data set [3]: Clearance in mouse at 0.5 mg/kg, iv. The conditions noted are these: in vivo. The class given is ADME, organism-based.
Data set [4] deals with T2, Mineralocorticoid receptor (Homo sapiens, UniProt P08235).
T2 sequence (P08235 whole entry): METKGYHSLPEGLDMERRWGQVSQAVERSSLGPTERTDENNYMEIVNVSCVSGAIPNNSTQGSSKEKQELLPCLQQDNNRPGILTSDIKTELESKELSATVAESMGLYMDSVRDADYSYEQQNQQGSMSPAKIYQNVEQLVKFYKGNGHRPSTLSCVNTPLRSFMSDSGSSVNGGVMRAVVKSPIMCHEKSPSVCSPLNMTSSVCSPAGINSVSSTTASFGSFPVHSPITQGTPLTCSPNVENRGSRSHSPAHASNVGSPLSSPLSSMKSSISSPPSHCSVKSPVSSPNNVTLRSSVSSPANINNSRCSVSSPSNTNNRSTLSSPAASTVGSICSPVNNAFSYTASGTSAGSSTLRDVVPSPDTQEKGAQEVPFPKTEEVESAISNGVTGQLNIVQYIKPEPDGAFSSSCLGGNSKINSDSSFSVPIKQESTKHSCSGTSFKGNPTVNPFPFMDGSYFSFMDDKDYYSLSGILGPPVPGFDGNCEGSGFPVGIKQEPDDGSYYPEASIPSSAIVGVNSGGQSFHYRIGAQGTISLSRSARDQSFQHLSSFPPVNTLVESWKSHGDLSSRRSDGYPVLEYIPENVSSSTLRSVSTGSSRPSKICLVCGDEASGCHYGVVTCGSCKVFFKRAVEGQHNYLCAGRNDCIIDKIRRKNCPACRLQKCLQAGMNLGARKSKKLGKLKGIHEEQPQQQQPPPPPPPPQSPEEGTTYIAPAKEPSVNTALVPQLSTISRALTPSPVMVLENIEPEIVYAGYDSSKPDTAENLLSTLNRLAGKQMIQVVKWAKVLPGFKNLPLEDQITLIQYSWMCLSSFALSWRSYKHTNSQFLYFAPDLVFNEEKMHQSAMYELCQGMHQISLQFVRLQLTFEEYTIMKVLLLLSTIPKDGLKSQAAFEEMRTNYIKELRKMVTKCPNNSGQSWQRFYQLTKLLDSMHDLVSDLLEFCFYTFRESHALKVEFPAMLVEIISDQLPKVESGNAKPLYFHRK
The experiment in a line: Agonist activity at human MR expressed in CHO-K1 cells assessed as increase in protein interaction between MR and its coactivator SRC at 5 uM incubated for 24 hrs by beta-galactosidase based chemiluminescence assay. Format: cell-based. The note with it: cho-k1, 24 h.

Data set [5] has as its target T3, Glucocorticoid receptor (Sus scrofa, UniProt Q9N1U3).
T3 sequence (Q9N1U3 whole entry): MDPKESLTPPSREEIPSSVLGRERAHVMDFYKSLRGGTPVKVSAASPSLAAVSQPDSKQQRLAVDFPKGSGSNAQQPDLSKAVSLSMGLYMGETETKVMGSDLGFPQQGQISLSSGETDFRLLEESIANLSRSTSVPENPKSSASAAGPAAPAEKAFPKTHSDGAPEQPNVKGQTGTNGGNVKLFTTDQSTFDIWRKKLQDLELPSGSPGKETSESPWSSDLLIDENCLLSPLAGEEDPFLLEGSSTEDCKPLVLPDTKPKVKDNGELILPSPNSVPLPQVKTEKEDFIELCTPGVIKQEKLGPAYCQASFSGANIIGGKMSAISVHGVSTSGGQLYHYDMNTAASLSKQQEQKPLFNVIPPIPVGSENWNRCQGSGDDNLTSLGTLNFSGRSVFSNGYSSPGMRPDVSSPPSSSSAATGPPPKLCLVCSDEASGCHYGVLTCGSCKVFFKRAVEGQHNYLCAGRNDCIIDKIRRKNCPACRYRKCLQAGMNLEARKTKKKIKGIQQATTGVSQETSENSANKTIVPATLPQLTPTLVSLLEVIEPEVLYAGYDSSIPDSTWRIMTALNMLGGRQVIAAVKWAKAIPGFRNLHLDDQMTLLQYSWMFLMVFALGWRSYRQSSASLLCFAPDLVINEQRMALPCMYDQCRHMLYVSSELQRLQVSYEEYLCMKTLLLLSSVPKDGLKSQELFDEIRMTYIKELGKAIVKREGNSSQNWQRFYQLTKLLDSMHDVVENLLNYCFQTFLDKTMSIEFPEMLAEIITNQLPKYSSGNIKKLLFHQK
The experiment in a line: Antagonist activity at GR in mini pig PBMC assessed as reduction in dexamethasone-induced FKBP5 gene expression incubated for 24 hrs by RT-qPCR method. Format: cell-based.

The compound `CC(C)N(C)c1ccc([C@H]2C[C@@]3(C)[C@@H](CC[C@@]3(O)C#CC(C)(C)C)[C@@H]3CCC4=CC(=O)CC[C@@H]4[C@H]32)cc1` displayed a peak concentration (Cmax) in data set [1] of 149 ng/mL. The 50% inhibitory concentration (IC50) at Glucocorticoid receptor [2] worked out at 45.6 nM; on Glucocorticoid receptor [5], 39.3 nM. The clearance in data set [3] was 27.2 mL/min/kg. In addition, the Activity result in data set [4] is given as “Not Active”.
